In US9242993B2, “Morpholino substituted bicyclic pyrimidine urea or carbamate derivatives as mTOR inhibitors” (CELLZOME LIMITED, priority 2011, dated 2016):

Experiments:
[1] = biological target: DNA-dependent protein kinase (DNA-PK) (Homo sapiens, UniProt P78527); assay: biochemical
[2] = biological target: mTOR (Homo sapiens, UniProt P42345); assay: biochemical
[3] = system: IFNγ release in whole blood; assay: In vitro human whole blood assay (IFNγ release); assay type: cell-based; details: αCD3/αCD28 and IL-2 stimulation, 18 hours, read-out: WB inhibition value (pIC50) (converted)
Procedure: This assay measures IFNγ release in whole blood after αCD3/αCD28 and IL-2 treatment. The whole blood contains circulating T lymphocytes; αCD3/αCD28 stimulation mimics antigen receptor signalling, resulting in epigenetic changes to the IFNG gene locus, such that when IL-2 is added, IFNγ is produced.
Human whole blood, with Na-heparin as the anticoagulant, is obtained from Clinical Trials Laboratory Services. Blood is diluted 1.4 times with RPMI 1640 (Lonza, BE12-167F) and 175 μl/well is distributed in a low evaporation 96-well plates (Falcon, BD Labware, 353072). Blood is treated with 10 concentrations of test compounds or DMSO alone for controls (final DMSO concentration 0.2%) and incubated at 37° C. for 1 hour. Blood is then stimulated with 1 μg/ml αCD3 (R&D Systems, MAB100), 1 μg/ml αCD28 (BD Pharmingen, 555725) and IL-2 at 10 ng/ml (Peprotech, 200-02). Blood is then left to incubate at 37° C. for 18 hours. After, plates are spun at 250 g for 5 minutes to pellet blood cells and 25 μl of plasma is transferred to a MesoScale plate coated with an antibody to IFNγ (MesoScale Discovery K151AEC-2) containing 25 μl/well MesoScale Discovery Blocking Solution-2. Plates have been blocked by incubating with 25 μl/well MesoScale Discovery Blocking Solution-2 for 30 minutes at room temperature. After the transfer of sera to the MSD plate, the IFNγ protein is captured on the coated antibody by incubation at room temperature for 2 hour with gentle shaking. After the capture step the plate is washed three times with 150 μl/well of 1×PBS-Tween wash buffer and 25 μl/well detection antibody conjugated with a Sulfo-Tag is added and incubated for 2 hours at room temperature with gentle shaking. Subsequently the antibody solution is removed and the plate is washed 3 times with 150 μl/well 1×PBS-Tween wash buffer and 150 μl/well MesoScale Discovery Read buffer is added. The plates are analysed on a MSD 2400 Plate Reader (MesoScale Discovery). Data analysis is performed using nonlinear regression for a sigmoidal dose-response with a variable slope.

[4] = system: S6RP serine-240/244 phosphorylation; assay: In vitro phospho-S6 cellular assay; assay type: cell-based; details: Homo sapiens; HEK293T/17 cells, 2 hours; read-out: pS6 inhibition value (IC50), activity level
How it was run: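 HEK293T/17 cells (40,000/well for pS6RP, 80,000/well for pAkt) in DMEM, 2% FCS treated 2 h at 37 °C with 8 compound concentrations (0.1% DMSO). Lysates assayed by MesoScale sandwich electrochemiluminescence for pS6RP Ser240/244 or pAkt Ser473. Curves fitted by sigmoidal variable-slope regression.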

DNA-dependent protein kinase (DNA-PK), sequence (P78527 whole entry): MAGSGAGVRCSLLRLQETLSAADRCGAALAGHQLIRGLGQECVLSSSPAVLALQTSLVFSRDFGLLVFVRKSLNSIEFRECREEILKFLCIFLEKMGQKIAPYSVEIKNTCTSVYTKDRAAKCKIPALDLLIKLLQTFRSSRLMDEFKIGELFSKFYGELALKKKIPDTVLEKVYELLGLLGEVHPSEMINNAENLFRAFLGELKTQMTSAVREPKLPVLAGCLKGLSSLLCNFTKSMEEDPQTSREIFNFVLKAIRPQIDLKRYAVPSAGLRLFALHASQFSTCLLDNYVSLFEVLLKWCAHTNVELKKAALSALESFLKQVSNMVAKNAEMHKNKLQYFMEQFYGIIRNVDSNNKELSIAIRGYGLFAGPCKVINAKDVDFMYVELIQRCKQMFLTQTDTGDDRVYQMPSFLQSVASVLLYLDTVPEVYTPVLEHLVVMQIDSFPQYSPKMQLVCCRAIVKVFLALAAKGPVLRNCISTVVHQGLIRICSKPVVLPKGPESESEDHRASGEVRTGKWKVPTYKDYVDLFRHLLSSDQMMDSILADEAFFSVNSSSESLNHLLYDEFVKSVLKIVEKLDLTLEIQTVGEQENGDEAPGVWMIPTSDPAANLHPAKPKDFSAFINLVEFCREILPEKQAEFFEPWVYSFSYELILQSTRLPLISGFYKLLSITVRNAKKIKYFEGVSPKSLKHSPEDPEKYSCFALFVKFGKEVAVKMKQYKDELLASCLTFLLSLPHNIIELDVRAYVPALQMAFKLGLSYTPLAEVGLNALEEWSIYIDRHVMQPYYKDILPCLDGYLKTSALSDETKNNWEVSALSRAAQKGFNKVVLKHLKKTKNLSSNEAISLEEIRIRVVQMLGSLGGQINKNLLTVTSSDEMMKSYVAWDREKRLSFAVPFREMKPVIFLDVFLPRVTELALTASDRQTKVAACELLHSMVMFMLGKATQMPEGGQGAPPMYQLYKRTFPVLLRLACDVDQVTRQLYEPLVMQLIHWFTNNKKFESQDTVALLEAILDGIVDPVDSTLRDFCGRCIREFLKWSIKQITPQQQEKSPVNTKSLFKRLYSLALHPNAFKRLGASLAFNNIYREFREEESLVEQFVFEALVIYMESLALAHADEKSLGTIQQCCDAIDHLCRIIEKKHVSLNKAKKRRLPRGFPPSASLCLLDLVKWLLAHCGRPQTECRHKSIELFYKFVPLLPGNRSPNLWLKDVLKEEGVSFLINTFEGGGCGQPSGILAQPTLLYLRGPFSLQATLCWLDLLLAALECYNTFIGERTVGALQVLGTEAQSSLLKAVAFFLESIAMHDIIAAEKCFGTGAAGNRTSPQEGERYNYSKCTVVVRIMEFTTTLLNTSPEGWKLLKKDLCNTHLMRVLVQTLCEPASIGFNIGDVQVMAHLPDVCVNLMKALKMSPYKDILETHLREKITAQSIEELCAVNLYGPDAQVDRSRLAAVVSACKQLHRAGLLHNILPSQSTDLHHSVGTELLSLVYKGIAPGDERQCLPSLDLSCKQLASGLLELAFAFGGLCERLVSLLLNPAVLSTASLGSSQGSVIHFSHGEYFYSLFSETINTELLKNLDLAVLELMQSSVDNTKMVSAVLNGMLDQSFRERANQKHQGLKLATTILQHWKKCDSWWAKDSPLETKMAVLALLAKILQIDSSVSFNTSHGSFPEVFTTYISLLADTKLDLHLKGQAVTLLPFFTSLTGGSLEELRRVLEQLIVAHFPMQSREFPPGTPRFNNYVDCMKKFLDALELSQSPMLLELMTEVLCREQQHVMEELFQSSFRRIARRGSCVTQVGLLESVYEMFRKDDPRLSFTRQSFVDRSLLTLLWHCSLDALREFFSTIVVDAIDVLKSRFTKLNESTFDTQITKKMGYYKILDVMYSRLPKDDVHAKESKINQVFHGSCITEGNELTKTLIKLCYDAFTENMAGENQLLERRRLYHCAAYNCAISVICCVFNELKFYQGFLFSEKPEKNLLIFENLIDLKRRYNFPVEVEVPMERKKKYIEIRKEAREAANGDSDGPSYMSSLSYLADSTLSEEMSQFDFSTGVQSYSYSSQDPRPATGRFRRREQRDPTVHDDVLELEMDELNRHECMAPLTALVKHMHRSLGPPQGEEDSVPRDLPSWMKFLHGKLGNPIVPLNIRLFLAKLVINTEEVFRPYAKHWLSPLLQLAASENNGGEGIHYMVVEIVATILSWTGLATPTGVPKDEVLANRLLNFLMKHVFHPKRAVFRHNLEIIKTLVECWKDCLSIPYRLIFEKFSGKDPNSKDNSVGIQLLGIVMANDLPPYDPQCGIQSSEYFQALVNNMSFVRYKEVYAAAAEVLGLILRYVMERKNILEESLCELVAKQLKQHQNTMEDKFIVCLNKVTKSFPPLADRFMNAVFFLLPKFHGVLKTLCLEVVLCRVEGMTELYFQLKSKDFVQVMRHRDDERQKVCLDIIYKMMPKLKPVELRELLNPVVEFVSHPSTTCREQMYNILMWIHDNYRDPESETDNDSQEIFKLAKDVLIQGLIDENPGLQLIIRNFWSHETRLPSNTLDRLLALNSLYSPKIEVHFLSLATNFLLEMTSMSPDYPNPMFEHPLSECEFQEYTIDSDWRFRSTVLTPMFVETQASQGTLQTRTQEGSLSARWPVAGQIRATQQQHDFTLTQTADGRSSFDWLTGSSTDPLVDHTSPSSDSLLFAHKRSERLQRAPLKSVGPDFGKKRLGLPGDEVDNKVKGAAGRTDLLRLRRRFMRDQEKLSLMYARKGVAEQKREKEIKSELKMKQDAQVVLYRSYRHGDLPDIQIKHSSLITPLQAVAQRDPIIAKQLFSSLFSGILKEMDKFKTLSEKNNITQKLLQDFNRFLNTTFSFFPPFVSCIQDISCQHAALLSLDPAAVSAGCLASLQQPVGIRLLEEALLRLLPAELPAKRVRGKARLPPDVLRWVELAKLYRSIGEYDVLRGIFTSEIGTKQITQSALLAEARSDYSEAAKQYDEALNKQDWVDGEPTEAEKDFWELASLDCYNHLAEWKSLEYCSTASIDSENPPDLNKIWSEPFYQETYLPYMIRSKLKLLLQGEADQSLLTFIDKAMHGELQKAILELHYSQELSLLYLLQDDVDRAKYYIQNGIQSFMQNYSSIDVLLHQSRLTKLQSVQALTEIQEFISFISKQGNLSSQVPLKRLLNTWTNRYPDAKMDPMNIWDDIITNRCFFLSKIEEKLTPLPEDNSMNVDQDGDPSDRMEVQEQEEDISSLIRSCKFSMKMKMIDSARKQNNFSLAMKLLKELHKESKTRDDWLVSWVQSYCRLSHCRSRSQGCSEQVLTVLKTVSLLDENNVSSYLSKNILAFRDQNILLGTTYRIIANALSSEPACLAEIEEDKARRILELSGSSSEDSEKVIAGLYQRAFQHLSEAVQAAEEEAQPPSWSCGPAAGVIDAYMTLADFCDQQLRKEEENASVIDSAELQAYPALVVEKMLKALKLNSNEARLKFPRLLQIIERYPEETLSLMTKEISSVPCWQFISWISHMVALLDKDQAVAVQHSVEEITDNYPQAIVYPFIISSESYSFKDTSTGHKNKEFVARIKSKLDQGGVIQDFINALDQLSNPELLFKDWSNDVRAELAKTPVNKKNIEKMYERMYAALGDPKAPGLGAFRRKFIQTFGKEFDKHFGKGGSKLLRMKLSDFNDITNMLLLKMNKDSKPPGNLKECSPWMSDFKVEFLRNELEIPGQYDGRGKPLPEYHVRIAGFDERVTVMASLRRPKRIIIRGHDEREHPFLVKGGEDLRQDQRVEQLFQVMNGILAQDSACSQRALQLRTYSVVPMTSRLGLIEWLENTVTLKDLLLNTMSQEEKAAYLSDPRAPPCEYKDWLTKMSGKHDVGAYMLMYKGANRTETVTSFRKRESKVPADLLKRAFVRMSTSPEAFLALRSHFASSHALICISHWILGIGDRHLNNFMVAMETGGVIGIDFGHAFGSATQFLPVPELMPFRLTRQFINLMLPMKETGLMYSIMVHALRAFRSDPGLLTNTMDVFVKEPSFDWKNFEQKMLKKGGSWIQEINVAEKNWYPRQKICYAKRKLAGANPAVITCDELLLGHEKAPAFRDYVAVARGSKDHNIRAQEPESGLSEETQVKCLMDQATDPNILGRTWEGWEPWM

IC50 [1] [nM]	IC50 [2] [nM]	IC50 [3] [nM]	IC50 [4] [nM]	Structure (SMILES)
> 10000	< 100	1000	< 100	C[C@H]1COCCN1c1nc(-c2ccc(NC(=O)NC3CC3)cc2)nc2c1CS(=O)(=O)C2(C)F (stereo partly drawn) [Example 43, 1-cyclopropyl-3-(4-(7-fluoro-7-methyl-4-((S)-3-methylmorpholino)-6,6-dioxido-5,7-dihydrothieno[3,4-d]pyrimidin-2-yl)phenyl)urea]
> 10000	< 100	158	< 100	CC[C@H]1COCCN1c1nc(-c2ccc(NC(=O)NC3CC3)cc2)nc2c1CS(=O)(=O)C2(C)C [Example 51, (S)-1-cyclopropyl-3-(4-(4-(3-ethylmorpholino)-7,7-dimethyl-6,6-dioxido-5,7-dihydrothieno[3,4-d]pyrimidin-2-yl)phenyl)urea]
> 10000	< 100	316	–	CCNC(=O)Nc1ccc(-c2nc(N3CCOC[C@@H]3CC)c3c(n2)C(C)(C)S(=O)(=O)C3)cc1 [Example 56, (S)-1-ethyl-3-(4-(4-(3-ethylmorpholino)-7,7-dimethyl-6,6-dioxido-5,7-dihydrothieno[3,4-d]pyrimidin-2-yl)phenyl)urea]
> 10000	< 100	251	–	CNC(=O)Nc1ccc(-c2nc(N3CCOC[C@@H]3C)c3c(n2)C(C)(C)S(=O)(=O)C3)cc1 [Example 57, (S)-1-(4-(7,7-dimethyl-4-(3-methylmorpholino)-6,6-dioxido-5,7-dihydrothieno[3,4-d]pyrimidin-2-yl)phenyl)-3-methylurea]
> 10000	< 100	251	< 100	CNC(=O)Nc1ccc(-c2nc3c(c(N4CCOC[C@@H]4C)n2)C(C)S(=O)(=O)C3)cc1 (stereo partly drawn) [Example 58, 1-methyl-3-(4-(5-methyl-4-((S)-3-methylmorpholino)-6,6-dioxido-5,7-dihydrothieno[3,4-d]pyrimidin-2-yl)phenyl)urea]
> 10000	< 100	251	< 100	C[C@H]1COCCN1c1nc(-c2ccc(NC(=O)NCCF)cc2)nc2c1CS(=O)(=O)C2(C)C [Example 61, (S)-1-(4-(7,7-dimethyl-4-(3-methylmorpholino)-6,6-dioxido-5,7-dihydrothieno[3,4-d]pyrimidin-2-yl)phenyl)-3-(2-fluoroethyl)urea]
> 10000	< 100	1000	< 100	CNC(=O)Nc1ccc(-c2nc(N3CCOC[C@@H]3C)c3c(n2)C(C)(C)S(=O)(=O)C3)c(F)c1 [Example 66, (S)-1-(4-(7,7-dimethyl-4-(3-methylmorpholino)-6,6-dioxido-5,7-dihydrothieno[3,4-d]pyrimidin-2-yl)-3-fluorophenyl)-3-methylurea]
> 10000	100 to 1000	316	< 100	C[C@H]1COCCN1c1nc(-c2ccc(NC(=O)NC3COC3)cc2)nc2c1CS(=O)(=O)C2(C)C [Example 68, (S)-1-(4-(7,7-dimethyl-4-(3-methylmorpholino)-6,6-dioxido-5,7-dihydrothieno[3,4-d]pyrimidin-2-yl)phenyl)-3-(oxetan-3-yl)urea]

More lines, now with the values behind:

Structure (SMILES)	IC50 [1] [nM]	IC50 [2] [nM]	IC50 [3] [nM]	IC50 [4] [nM]
CCNC(=O)Nc1ccc(-c2nc3c(c(N4CCOC[C@@H]4CC)n2)CS(=O)(=O)C3C)cc1 (stereo partly drawn) [Example 41, 1-ethyl-3-(4-(4-((S)-3-ethylmorpholino)-7-methyl-6,6-dioxido-5,7-dihydrothieno[3,4-d]pyrimidin-2-yl)phenyl)urea]	> 10000	< 100	251	< 100
CC[C@H]1COCCN1c1nc(-c2ccc(NC(=O)NC3CC3)cc2)nc2c1C(C)S(=O)(=O)C2 (stereo partly drawn) [Example 47, 1-cyclopropyl-3-(4-(4-((S)-3-ethylmorpholino)-5-methyl-6,6-dioxido-5,7-dihydrothieno[3,4-d]pyrimidin-2-yl)phenyl)urea]	> 10000	100 to 1000	79.4	< 100
CCNC(=O)Nc1ccc(-c2nc3c(c(N4CCOC[C@@H]4CC)n2)[C@@H](C)S(=O)(=O)C3)cc1 [Example 52, 1-ethyl-3-(4-((R)-4-((S)-3-ethylmorpholino)-5-methyl-6,6-dioxido-5,7-dihydrothieno[3,4-d]pyrimidin-2-yl)phenyl)urea]	> 10000	< 100	31.6	< 100
CCNC(=O)Nc1ccc(-c2nc3c(c(N4CCOC[C@@H]4CC)n2)[C@H](C)S(=O)(=O)C3)cc1 [Example 53, 1-ethyl-3-(4-((S)-4-((S)-3-ethylmorpholino)-5-methyl-6,6-dioxido-5,7-dihydrothieno[3,4-d]pyrimidin-2-yl)phenyl)urea]	> 10000	< 100	63.1	< 100
CCNC(=O)Nc1ccc(-c2nc(N3CCOC[C@H]3C)c3c(n2)C(C)(C)S(=O)(=O)C3)cc1 [Example 55, (R)-1-(4-(7,7-dimethyl-4-(3-methylmorpholino)-6,6-dioxido-5,7-dihydrothieno[3,4-d]pyrimidin-2-yl)phenyl)-3-ethylurea]	> 10000	–	100	< 100
CC1(C)c2nc(-c3ccc(NC(=O)NC4CC4)cc3)nc(N3C4CCC3COC4)c2CS1(=O)=O [Example 59, 1-(4-(4-(3-oxa-8-azabicyclo[3.2.1]octan-8-yl)-7,7-dimethyl-6,6-dioxido-5,7-dihydrothieno[3,4-d]pyrimidin-2-yl)phenyl)-3-cyclopropylurea]	> 10000	< 100	100	< 100
CCNC(=O)Nc1ccc(-c2nc(N3C4CCC3COC4)c3c(n2)C(C)(C)S(=O)(=O)C3)cc1 [Example 60, 1-(4-(4-(3-oxa-8-azabicyclo[3.2.1]octan-8-yl)-7,7-dimethyl-6,6-dioxido-5,7-dihydrothieno[3,4-d]pyrimidin-2-yl)phenyl)-3-ethylurea]	> 10000	< 100	200	< 100
CC[C@H]1COCCN1c1nc(-c2ccc(NC(=O)NC)c(F)c2)nc2c1CS(=O)(=O)C2(C)C [Example 64, (S)-1-(4-(4-(3-ethylmorpholino)-7,7-dimethyl-6,6-dioxido-5,7-dihydrothieno[3,4-d]pyrimidin-2-yl)-2-fluorophenyl)-3-methylurea]	> 10000	100 to 1000	158	< 100
CCNC(=O)Nc1ccc(-c2nc3c(c(N4CCOC[C@@H]4C)n2)C(CC)S(=O)(=O)C3)cc1 (stereo partly drawn) [Example 67, 1-ethyl-3-(4-(5-ethyl-4-((S)-3-methylmorpholino)-6,6-dioxido-5,7-dihydrothieno[3,4-d]pyrimidin-2-yl)phenyl)urea]	> 10000	< 100	316	< 100
CCNC(=O)Nc1ccc(-c2nc(N3CCOC[C@@H]3C)c3c(n2)C(C)(C)S(=O)(=O)C3)c(F)c1 [Example 69, (S)-1-(4-(7,7-dimethyl-4-(3-methylmorpholino)-6,6-dioxido-5,7-dihydrothieno[3,4-d]pyrimidin-2-yl)-3-fluorophenyl)-3-ethylurea]	> 10000	< 100	126	< 100
C[C@H]1COCCN1c1nc(-c2ccc(NC(=O)NC3CC3)cc2)nc2c1CS(=O)(=O)C(C)(C)C2 [Example 70, (S)-1-cyclopropyl-3-(4-(7,7-dimethyl-4-(3-methylmorpholino)-6,6-dioxido-7,8-dihydro-5H-thiopyrano[4,3-d]pyrimidin-2-yl)phenyl)urea]	> 10000	< 100	158	< 100
CC[C@H]1COCCN1c1nc(-c2ccc(NC(=O)NC)cc2)nc2c1C(C)S(=O)(=O)C2(C)C (stereo partly drawn) [Example 80, 1-(4-(4-((S)-3-ethylmorpholino)-5,7,7-trimethyl-6,6-dioxido-5,7-dihydrothieno[3,4-d]pyrimidin-2-yl)phenyl)-3-methylurea]	–	< 100	100	< 100
